The source of these data is paper PMC11858597, “Synthesis, Anticancer Screening, and In Silico Evaluations of Thieno[2,3-c]pyridine Derivatives as Hsp90 Inhibitors” (Pharmaceuticals, 2025).

What is called inhibition is how much of the control response was suppressed.

Assay type in all cases: cell-based
The subject of test [1] is HSC3. In words: MTT assay, HSC3 head and neck cancer cells. To be noted: Homo sapiens, HSC-3, 72 h, 72 h, read-out: % cell growth inhibition; for inhibition at 1 µM: HSC3, 1 µM; for inhibition at 10 µM: HSC3, 10 µM; for inhibition at 100 µM: HSC3, 100 µM. An excerpt: (§1) An MTT assay was used to evaluate the final compounds’ anticancer activity against MCF7 and T47D (breast cancer cells), HSC3 (head and neck cancer cells), and RKO (colorectal cancer cells) cell lines, using cisplatin as a reference standard. Table 1 presents the percentage growth inhibition of all compounds against the various cancer cell lines.
(§2) The cancer cell lines MCF7 and T47D (breast cancer cells), HSC3 (head and neck cancer cells), and RKO (colorectal cancer cells) were kindly provided by Prof. Stephan Feller, Institute of Molecular Medicine, Martin Luther University, Halle, Germany. The human fibroblast (PDL) cell line was obtained as a kind gift from Prof. Khaled Al-Qaoud (Yarmouk University, Irbid, Jordan). All cell lines were cultured in Dulbecco’s Modified Eagle’s Medium (DMEM) supplemented with 10% fetal bovine serum, 100 µg/mL streptomycin, 100 U/mL penicillin, and 1% non-essential amino acid at 37 °C with 5% CO2 in a humidified CO2 incubator. The cell cultures were grown to confluence, and the medium was changed two times weekly.
(§3) The MTT (3-[4,5-dimethylthiazol-2-yl]-2,5-diphenyl tetrazolium bromide) assay was used to investigate cell viability and to calculate the half-maximal inhibitory concentration (IC50) values of the compounds 6(a–k) including standard reference cisplatin. Furthermore, […] stock solutions of the compounds were prepared in DMSO where all compounds were completely soluble. Cells were seeded in 96-well tissue culture plates at a density of 6,000 cells/well for MCF7, T47D, and PDL cells and at a density of 4000 cells/well for RKO and HSC3 cells. After 24 h of seeding, investigated cells were treated with three concentrations (1, 10, and 100 µm) of the compounds for 72 h. At the end of the treatment time, the supernatant medium was aspirated, and 50 µL of fresh DMEM containing MTT (0.5 mg/mL) was added to each well. Cells were then incubated at 37 °C for 2–4 h. After that, the medium was completely removed, and 50 µL of DMSO was added to each well to dissolve the precipitated formazan crystals formed by viable cells. Cell viability, represented by the absorbance of the formazan solution, was measured at 570 nm using the Synergy HTX Multimode Reader (BioTek, Vermont, USA), and cell viability was determined as described in the literature. For each concentration, the relative cell viability was calculated as follows: relative cell viability = (mean treatment absorbance/mean control absorbance) × 100%. Assays were performed in triplicate on three independent experiments. […] IC50 values were then calculated using the four-parameter logistic function in the SigmaPlot software (version 12.5) and presented as the mean ± SD from three independent experiments.
A general note: Tetrazolium assays rely on reduction of a dye to a coloured formazan, in cell work by metabolically active cells.

Test [2] relates to T47D. The test can be described thus: MTT assay, T47D breast cancer cells. To be noted: Homo sapiens, 72 h, read-out: % cell growth inhibition.
From the text: as §1, §2, §3

For test [3], the system named is MCF7. In words: MTT assay, MCF7 breast cancer cells. To be noted: 72 h; for inhibition at 1 µM / inhibition at 10 µM / inhibition at 100 µM: Homo sapiens, read-out: % cell growth inhibition; for inhibition at 1 µM: MCF7, 1 µM; for inhibition at 10 µM: MCF7, 10 µM; for inhibition at 100 µM / % cell growth inhibition: MCF7, 100 µM.
From the text: as §1, §2, §3

The subject of test [4] is RKO. In words: MTT assay, RKO colorectal cancer cells. To be noted: Homo sapiens, 72 h, read-out: % cell growth inhibition.
From the text: as §1, §2, §3

In the case of `CCOC(=O)c1c(NC(=O)CN2CCOCC2)sc2c1CCN(C(=O)OCC)C2` [6h, Diethyl 2-(2-morpholinoacetamido)-4,7-dihydrothieno[2,3-c]pyridine-3,6(5H)-di-carboxylate], the inhibition at 1 µM was 0% in test [1], 0% in test [2], 0% in test [3] and 8.76% in test [4]. Moreover, the inhibition at 10 µM in test [1] was 9.88%; in test [2] it was 17.8%; in test [3] it was 20.3%; in test [4] it was 19.1%. Also, the inhibition at 100 µM amounted to 77.9% in test [1], 78.2% in test [2], 77.2% in test [3] and 93.3% in test [4].

For the molecule `CCOC(=O)c1c(NC(=O)CN2CCNCC2)sc2c1CCN(C(=O)OCC)C2` [6c, Diethyl 2-(2-(piperazin-1-yl)acetamido)-4,7-dihydrothieno[2,3-c]pyridine-3,6(5H)-dicarboxylate], the inhibition at 1 µM was found to be 6.71% in test [1], 3.7% in test [2], 0% in test [3] and 17.1% in test [4]. Also, the inhibition at 10 µM stood at 30% in test [1], 28.1% in test [2], 22.1% in test [3] and 30.9% in test [4]. In addition, the inhibition at 100 µM is 83.4% in test [1], 80.8% in test [2], 81% in test [3] and 93.6% in test [4].

Turning to `CCOC(=O)c1c(NC(=O)CN2CCN(C(=O)c3ccco3)CC2)sc2c1CCN(C(=O)OCC)C2` [6j, Diethyl 2-(2-(4-(furan-2-carbonyl)piperazin-1-yl)acetamido)-4,7-dihydrothieno[2,3-c]-pyridine-3,6(5H)-dicarboxylate], the inhibition at 1 µM in test [1], in test [2], in test [3] and in test [4] was 0% each time. In addition, the inhibition at 10 µM in test [1] was 29.9%; in test [2] it was 1.19%; in test [3], 16.2%; in test [4], 17.3%. For the same molecule, the inhibition at 100 µM in test [1] amounted to 86.4%; in test [2], 76%; in test [3], 76.5%; in test [4], 96.8%.

`CCOC(=O)c1c(NC(=O)CN2CCN(CC)CC2)sc2c1CCN(C(=O)OCC)C2` [6e, Diethyl 2-(2-(4-ethylpiperazin-1-yl)acetamido)-4,7-dihydrothieno[2,3-c]pyridine-3,6(5H)-dicarboxylate]: the inhibition at 1 µM in test [1] is 3.26%; in test [2], 5.23%; in test [3], 4.67%; in test [4] it was 6.17%. For the same molecule, the inhibition at 10 µM in test [1] amounted to 5.51%; in test [2] it was 3.12%; in test [3], 11.7%; in test [4], 7.24%. The inhibition at 100 µM was determined as 75.8% in test [1], 79.4% in test [2], 74.2% in test [3] and 90.1% in test [4].

Regarding `CCOC(=O)c1c(NC(=O)CN2CCN(c3ccccc3OC)CC2)sc2c1CCN(C(=O)OCC)C2` [6g, Diethyl 2-(2-(4-(2-methoxyphenyl)piperazin-1-yl)acetamido)-4,7-dihydrothieno[2,3-c]-pyridine-3,6(5H)-dicarboxylate], in test [1], the inhibition at 1 µM was determined as 0%, the inhibition at 10 µM turned out to be 15.9% and the inhibition at 100 µM is 56.9%. Besides, in test [2], the inhibition at 1 µM came out at 0%, the inhibition at 10 µM worked out at 14.2% and the inhibition at 100 µM came out at 59.9%. Moreover, in test [3], the inhibition at 1 µM stood at 3.4%, the inhibition at 10 µM was determined as 6.36%, the inhibition at 100 µM turned out to be 57.3% and the “% cell growth inhibition” value is “weaker inhibition”. In test [4], the inhibition at 1 µM was 0.53%, the inhibition at 10 µM was determined as 14.6% and the inhibition at 100 µM stood at 68.4%.

Regarding `CCOC(=O)c1c(NC(=O)CN2CCN(C)CC2)sc2c1CCN(C(=O)OCC)C2` [6d, Diethyl 2-(2-(4-methylpiperazin-1-yl)acetamido)-4,7-dihydrothieno[2,3-c]pyridine-3,6-(5H)-dicarboxylate], the inhibition at 1 µM in test [1] came to 0%; in test [2], 0%; in test [3], 1.42%; in test [4], 0%. The inhibition at 10 µM was 0% in test [1], 2.54% in test [2], 3.7% in test [3] and 0% in test [4]. Moreover, the inhibition at 100 µM stood at 83.9% in test [1], 82.1% in test [2], 79.3% in test [3] and 94.4% in test [4].

For the molecule `CCOC(=O)c1c(NC(=O)CN2CCC(C)CC2)sc2c1CCN(C(=O)OCC)C2` [6b, Diethyl 2-(2-(4-methylpiperidin-1-yl)acetamido)-4,7-dihydrothieno[2,3-c]pyridine-3,6-(5H)-dicarboxylate], the inhibition at 1 µM in test [1] was 4.06%; in test [2] it was 7.79%; in test [3], 2.74%; in test [4], 10.7%. In addition, the inhibition at 10 µM in test [1] is 38%; in test [2] it was 24.4%; in test [3] it was 29.7%; in test [4], 39.3%. Further, the inhibition at 100 µM was 79.4% in test [1], 82% in test [2], 83.2% in test [3] and 94.1% in test [4].

For `CCOC(=O)c1c(NC(=O)CN2CCN(C(=O)OC(C)(C)C)CC2)sc2c1CCN(C(=O)OCC)C2` [6f, Diethyl 2-(2-(4-(tert-butoxycarbonyl)piperazin-1-yl)acetamido)-4,7-dihydrothieno[2,3-c]-pyridine-3,6(5H)-dicarboxylate], the inhibition at 1 µM in test [1] came out at 0%; in test [2], 7.62%; in test [3], 7.34%; in test [4], 6.11%. For the same molecule, the inhibition at 10 µM is 16.8% in test [1], 16.2% in test [2], 10% in test [3] and 17.2% in test [4]. The inhibition at 100 µM in test [1] was 45.8%; in test [2] it was 34.1%; in test [3], 39%; in test [4], 47.6%. In addition, the “% cell growth inhibition” value in test [3] is reported as “weaker inhibition”.

For `CCOC(=O)c1c(NC(=O)CN2CCN(c3ncccn3)CC2)sc2c1CCN(C(=O)OCC)C2` [6k, Diethyl 2-(2-(4-(pyrimidin-2-yl)piperazin-1-yl)acetamido)-4,7-dihydrothieno[2,3-c]-pyridine-3,6(5H)-dicarboxylate], the inhibition at 1 µM in test [1], in test [2], in test [3] and in test [4] was 0% in each case. For the same molecule, the inhibition at 10 µM came to 11.3% in test [1], 10.1% in test [2], 12.2% in test [3] and 22.2% in test [4]. The inhibition at 100 µM in test [1] turned out to be 86.2%; in test [2], 76.5%; in test [3], 80%; in test [4], 96.1%.
